US12551577B2, “7-ethyl-10-hydroxycamptothecin drug precursor with fluorescence activity, and preparation method and use thereof” (SOOCHOW UNIVERSITY, priority 2021, dated 2026)

Test: Solubility in chloroform by weight loss method
Assay type: physicochemical
Settings: 2 mg in 300 μL chloroform
Protocol: The weights of the two centrifuge tubes were recorded on an analytical balance, respectively. […] 300 μL of chloroform was added to the centrifuge tube, shaken, and centrifuged. […] The solubility of different compounds in chloroform was estimated by the weight loss method (where the specific operation includes pipetting the solution, and lyophilizing the remaining solid and weighing).

## CCc1c2c(nc3ccc(O)cc13)-c1cc3c(c(=O)n1C2)COC(=O)[C@]3(O)CC [SN38, 7-Ethyl-10-hydroxycamptothecin]
  solubility in chloroform: hardly soluble
